One experiment deals with T1, hSiglec-1 (Homo sapiens, UniProt Q9BZZ2).
T1 construct: gene SIGLEC1; monomeric Siglec-1 fragment from CHO Lec1 cells
Nature of the experiment: direct ESI native mass spectrometry titration. Format: binding.

Experiment [1] addresses T2, mSiglec-1 (Mus musculus, UniProt Q62230).
T2 construct: gene Siglec1; monomeric Siglec-1 fragment from CHO Lec1 cells
Nature of the experiment: direct ESI native mass spectrometry titration (no binding in liposome bead assay or ELISA). On the technique in general: ELISA stands for enzyme-linked immunosorbent assay.

For experiment [2], the target named is T2, mSiglec-1. Nature of the experiment: direct ESI native mass spectrometry titration. In kind it is binding.

In general, Kd refers to the free concentration of one partner at which half of the binding sites on the other are occupied at equilibrium, for simple one-to-one binding.

T2 sequence (Q62230 20-136 limits assumed): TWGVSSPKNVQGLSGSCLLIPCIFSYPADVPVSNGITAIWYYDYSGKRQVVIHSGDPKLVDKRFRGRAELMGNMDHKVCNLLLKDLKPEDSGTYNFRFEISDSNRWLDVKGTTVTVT
T1 sequence (Q9BZZ2 20-136 limits assumed): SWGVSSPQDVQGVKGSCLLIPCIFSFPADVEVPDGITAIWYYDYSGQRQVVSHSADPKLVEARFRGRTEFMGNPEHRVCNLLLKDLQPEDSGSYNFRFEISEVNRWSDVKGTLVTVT

GM1a oligosaccharide: the equilibrium dissociation constant (Kd) stood at 1.5 mM on hSiglec-1 and 2 mM at mSiglec-1 [1].
GM1b oligosaccharide: the Kd on mSiglec-1 [2] was determined as 1.2 mM; on hSiglec-1 it was 0.89 mM.
